Values quoted from earlier work, collected in PubChem BioAssay AID1259409 (Chemical Carcinogenesis Research Information System (CCRIS), 2018).

Tested on: rodent chemically induced tumor inhibition, incidence and multiplicity
Experiment: CCRIS tumor inhibitor studies
Conditions: Carcinogen: L-AZASERINE, 115-02-6, Route [Inhibitor]: ORAL, Species: RAT, Dose [Carcinogen]: 10 MG/KG BW 1/WK FOR 15 WK, Promoter: NONE USED

In the case of CCC(=O)Oc1ccc(NC(=O)\C=C(C)/C=C/C=C(C)/C=C/C2=C(C)CCCC2(C)C)cc1, the “tumour outcome (control, treated, inhibition, significance)” value (Dose [Inhibitor]: 1 MMOL/KG DIET DAILY FOR 84 D FOLLOWED BY 0.5 MMOL/KG DIET FOR 276 D STARTING 1 WK AFTER COMPLETION OF CARCINOGEN TREATM, Strain/Sex: WISTAR-LEWIS/FEMALE, Target Tissue: Type of Lesion: PANCREAS: ADENOMA) is listed as 50%, 17%, 66%, not significant, the “tumour outcome (control, treated, inhibition, significance)” value (Dose [Inhibitor]: 1 MMOL/KG DIET DAILY FOR 84 D FOLLOWED BY 0.5 MMOL/KG DIET FOR 276 D STARTING 1 WK AFTER COMPLETION OF CARCINOGEN TREATM, Strain/Sex: WISTAR-LEWIS/FEMALE, Target Tissue: Type of Lesion: PANCREAS: CARCINOMA IN SITU) is listed as 8%, 21%, -163%, not calculated and the “tumour outcome (control, treated, inhibition, significance)” value (Dose [Inhibitor]: 1 MMOL/KG DIET DAILY FOR 84 D FOLLOWED BY 0.5 MMOL/KG DIET FOR 276 D STARTING 1 WK AFTER COMPLETION OF CARCINOGEN TREATM, Strain/Sex: WISTAR-LEWIS/FEMALE, Target Tissue: Type of Lesion: PANCREAS: CARCINOMA) is listed as 13%, 0%, 100%, not significant. The “tumour outcome (control, treated, inhibition, significance)” value (Dose [Inhibitor]: 1 MMOL/KG DIET DAILY FOR 84 D FOLLOWED BY 0.5 MMOL/KG DIET FOR 276 D STARTING 1 WK AFTER COMPLETION OF CARCINOGEN TREATM, Strain/Sex: WISTAR-LEWIS/FEMALE, Target Tissue: Type of Lesion: PANCREAS: NEOPLASM) was 71%, 38%, 46%, p<0.05, the “tumour outcome (control, treated, inhibition, significance)” value (Dose [Inhibitor]: 1 MMOL/KG DIET DAILY FOR 84 D FOLLOWED BY 0.5 MMOL/KG DIET FOR 276 D STARTING 1 WK AFTER COMPLETION OF CARCINOGEN TREATM, Strain/Sex: WISTAR-LEWIS/MALE, Target Tissue: Type of Lesion: PANCREAS: ADENOMA) was 25%, 29%, -16%, not significant and the “tumour outcome (control, treated, inhibition, significance)” value (Dose [Inhibitor]: 1 MMOL/KG DIET DAILY FOR 84 D FOLLOWED BY 0.5 MMOL/KG DIET FOR 276 D STARTING 1 WK AFTER COMPLETION OF CARCINOGEN TREATM, Strain/Sex: WISTAR-LEWIS/MALE, Target Tissue: Type of Lesion: PANCREAS: CARCINOMA IN SITU) was 29%, 42%, -45%, not significant. For the same molecule, the “tumour outcome (control, treated, inhibition, significance)” value (Dose [Inhibitor]: 1 MMOL/KG DIET DAILY FOR 84 D FOLLOWED BY 0.5 MMOL/KG DIET FOR 276 D STARTING 1 WK AFTER COMPLETION OF CARCINOGEN TREATM, Strain/Sex: WISTAR-LEWIS/MALE, Target Tissue: Type of Lesion: PANCREAS: CARCINOMA) was 46%, 21%, 54%, p 0.06, the “tumour outcome (control, treated, inhibition, significance)” value (Dose [Inhibitor]: 1 MMOL/KG DIET DAILY FOR 84 D FOLLOWED BY 0.5 MMOL/KG DIET FOR 276 D STARTING 1 WK AFTER COMPLETION OF CARCINOGEN TREATM, Strain/Sex: WISTAR-LEWIS/MALE, Target Tissue: Type of Lesion: PANCREAS: NEOPLASM) was 100%, 92%, 8%, not significant and the “tumour outcome (control, treated, inhibition, significance)” value (Dose [Inhibitor]: 2 MMOL/KG DIET FOR 44 D, 1.5 MMOL FOR 26 D, 1 MMOL FOR 56 D AND 0.75 MMOL FOR 192 D STARTING 1 WK AFTER COMPLETION OF CA, Strain/Sex: WISTAR-LEWIS/FEMALE, Target Tissue: Type of Lesion: PANCREAS: ADENOMA) was 50%, 29%, 42%, not significant. The “tumour outcome (control, treated, inhibition, significance)” value (Dose [Inhibitor]: 2 MMOL/KG DIET FOR 44 D, 1.5 MMOL FOR 26 D, 1 MMOL FOR 56 D AND 0.75 MMOL FOR 192 D STARTING 1 WK AFTER COMPLETION OF CA, Strain/Sex: WISTAR-LEWIS/FEMALE, Target Tissue: Type of Lesion: PANCREAS: CARCINOMA IN SITU) was 8%, 4%, 50%, not significant, the “tumour outcome (control, treated, inhibition, significance)” value (Dose [Inhibitor]: 2 MMOL/KG DIET FOR 44 D, 1.5 MMOL FOR 26 D, 1 MMOL FOR 56 D AND 0.75 MMOL FOR 192 D STARTING 1 WK AFTER COMPLETION OF CA, Strain/Sex: WISTAR-LEWIS/FEMALE, Target Tissue: Type of Lesion: PANCREAS: CARCINOMA) was 13%, 4%, 70%, not significant and the “tumour outcome (control, treated, inhibition, significance)” value (Dose [Inhibitor]: 2 MMOL/KG DIET FOR 44 D, 1.5 MMOL FOR 26 D, 1 MMOL FOR 56 D AND 0.75 MMOL FOR 192 D STARTING 1 WK AFTER COMPLETION OF CA, Strain/Sex: WISTAR-LEWIS/FEMALE, Target Tissue: Type of Lesion: PANCREAS: NEOPLASM) was 71%, 38%, 46%, p<0.05. The “tumour outcome (control, treated, inhibition, significance)” value (Dose [Inhibitor]: 2 MMOL/KG DIET FOR 44 D, 1.5 MMOL FOR 26 D, 1 MMOL FOR 56 D AND 0.75 MMOL FOR 192 D STARTING 1 WK AFTER COMPLETION OF CA, Strain/Sex: WISTAR-LEWIS/MALE, Target Tissue: Type of Lesion: PANCREAS: ADENOMA) was 25%, 22%, 12%, not significant, the “tumour outcome (control, treated, inhibition, significance)” value (Dose [Inhibitor]: 2 MMOL/KG DIET FOR 44 D, 1.5 MMOL FOR 26 D, 1 MMOL FOR 56 D AND 0.75 MMOL FOR 192 D STARTING 1 WK AFTER COMPLETION OF CA, Strain/Sex: WISTAR-LEWIS/MALE, Target Tissue: Type of Lesion: PANCREAS: CARCINOMA IN SITU) was 29%, 43%, -48%, not significant and the “tumour outcome (control, treated, inhibition, significance)” value (Dose [Inhibitor]: 2 MMOL/KG DIET FOR 44 D, 1.5 MMOL FOR 26 D, 1 MMOL FOR 56 D AND 0.75 MMOL FOR 192 D STARTING 1 WK AFTER COMPLETION OF CA, Strain/Sex: WISTAR-LEWIS/MALE, Target Tissue: Type of Lesion: PANCREAS: CARCINOMA) was 46%, 13%, 72%, p<0.05. The “tumour outcome (control, treated, inhibition, significance)” value (Dose [Inhibitor]: 2 MMOL/KG DIET FOR 44 D, 1.5 MMOL FOR 26 D, 1 MMOL FOR 56 D AND 0.75 MMOL FOR 192 D STARTING 1 WK AFTER COMPLETION OF CA, Strain/Sex: WISTAR-LEWIS/MALE, Target Tissue: Type of Lesion: PANCREAS: NEOPLASM) was 100%, 78%, 22%, not significant.
